Reference: patent US20210369853A1, “TARGETED PROTEASE DEGRADATION PLATFORM” (EUBULUS BIOTHERAPEUTICS INC., priority 2018, published 2021)
Read-outs that look alike come from different tables or passages of the source.

What was measured:
Assay type in all cases: cell-based
[1] = test system: Human Monocytic Leukemia MV4-11; test: Cell proliferation experiment (Alarm blue, 72 h, EC50)
Method in brief: (§1)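 Log-phase cells were seeded in 96-well plates, then exposed to test compound in a 5-fold dilution series, in duplicate, for 72 h. Fluorescence read by Alarm blue. EC50 fitted with a four-parameter (Min, Max, Slope) equation.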

[2] = test system: Human Colon Cancer HCT-116; test: as above; conditions: HCT116 cells
Method in brief: as §1

[3] = test system: Human Small Cell Lung Cancer NCI-H82; test: as above; conditions: NCIH82 cells
Method in brief: as §1

Human Colon Cancer HT-29 = test: as above; conditions: HT-29 cells
Method in brief: as §1

[4] = test system: Human cervical adenocarcinoma cells Hela; test: as above
Method in brief: as §1

[5] = test system: Human Breast Cancer MDA-MB-231; test: as above; conditions: MDA-MB-231 cells
Method in brief: as §1

PLK1 = target: T1, PLK1 (Homo sapiens, UniProt P53350); test: Western blot, protein degradation (DC50)
T1 construct: endogenous in cells
Method: (§2) Cells were treated with the compound for a period of time, after that the cells were collected by centrifugation. After washing with PBS, the cells were lysed by adding RIPA buffer; the cell lysate were added to the loading buffer and then appropriate volume were taken and slowly added to the corresponding wells of the gel plate, and run the SDS-PAGE gel (4%-12%). After running the gel, transferred to the PVDF membrane and sealed with 5% skimmed milk powder at room temperature for 1 hour. The membrane was placed in the primary antibody diluted with 5% skimmed milk powder and shaked slowly overnight at 4° C. After incubation with primary antibody, the membrane was washed 3 times using a TBST shaker; added secondary antibody diluted with 5% skimmed milk powder corresponding to the primary antibody, and shaked slowly at room temperature for 1 hour. After incubation with secondary antibody, the membrane was washed 3 times using the TBST shaker again. The PVDF membrane was flatted in the cassette, the strip was evenly infiltrated with ECL developer solution, and placed in ChemDoc XRS+ gel imager for taking pictures. The intensity of protein bands was analyzed quantitatively using ImageJ software.

BRD4 = target: T2, BRD4 (Homo sapiens, UniProt O60885); test: Western blot, protein degradation (DC50)
T2 construct: endogenous in cells
Method: as §2

[6] = test system: Human Acute Myelomonocytic Leukemia HL-60; test: Cell proliferation experiment (Alarm blue, 72 h, EC50); conditions: HL-60 cells
Method in brief: as §1

[7] = test system: Human Monocytic Leukemia THP-1; test: as above; conditions: THP-1 cells
Method in brief: as §1

[8] = test system: Human Glioma Cells U-87 MG; test: as above; conditions: Homo sapiens; U-87MG cells
Method in brief: as §1

[9] = test system: Human Acute Lymphoblastic Leukemia Cells MOLT-4; test: as above; conditions: MOL4-4 cells
Method in brief: as §1

[10] = Homo sapiens, MV4-11, MV4;11 cells
[11] = 24 h, read-out: PLK1 DC50 (24 h)
[12] = 24 h, read-out: BRD4 DC50 (24 h)
[13] = 6 h, western blot, read-out: PLK1 DC50 (6 h)
[14] = 6 h, western blot, read-out: BRD4 DC50 (6 h)

T1 sequence (P53350 whole entry): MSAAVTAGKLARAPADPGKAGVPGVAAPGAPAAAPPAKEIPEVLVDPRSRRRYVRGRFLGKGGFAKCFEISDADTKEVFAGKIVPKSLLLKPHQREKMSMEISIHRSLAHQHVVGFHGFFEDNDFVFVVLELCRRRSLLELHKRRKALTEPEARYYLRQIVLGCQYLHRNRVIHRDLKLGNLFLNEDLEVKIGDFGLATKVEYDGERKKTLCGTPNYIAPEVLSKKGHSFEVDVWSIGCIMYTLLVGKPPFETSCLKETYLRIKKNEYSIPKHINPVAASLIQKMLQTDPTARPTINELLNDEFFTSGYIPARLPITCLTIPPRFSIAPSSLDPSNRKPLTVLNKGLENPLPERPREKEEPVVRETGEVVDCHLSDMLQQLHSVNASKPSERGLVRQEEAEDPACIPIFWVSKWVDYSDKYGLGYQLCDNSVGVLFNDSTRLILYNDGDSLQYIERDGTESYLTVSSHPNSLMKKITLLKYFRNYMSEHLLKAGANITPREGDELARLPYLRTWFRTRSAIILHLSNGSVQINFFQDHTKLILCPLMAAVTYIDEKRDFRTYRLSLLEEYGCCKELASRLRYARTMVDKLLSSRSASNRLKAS

| Compound | EC50 [1, 10] [nM] | EC50 ([2]; Homo sapiens, HCT-116) [nM] | EC50 ([3]; Homo sapiens, NCI-H82) [nM] | EC50 (Human Colon Cancer HT-29; Homo sapiens) [nM] | also measured |
| --- | --- | --- | --- | --- | --- |
| CC[C@@H]1C(=O)N(C)c2cnc(Nc3ccc(C(=O)NCCCNCCCCC(=O)Nc4cccc5c4CN(C4CCC(=O)NC4=O)C5=O)cc3OC)nc2N1Cc1ccc(Br)cc1 (stereo partly shown) [UB-180638] | 10 to 100 | > 1000 | > 1000 | – | – |
| CC[C@@H]1C(=O)N(C)c2cnc(Nc3ccc(C(=O)NCCOCCNCCCC(=O)Nc4cccc5c4CN(C4CCC(=O)NC4=O)C5=O)cc3OC)nc2N1Cc1ccc(Br)cc1 (stereo partly shown) [UB-180626] | – | – | – | – | EC50 ([1]; MV4;11 cells): 10 to 100 nM; EC50 [2]: > 1000 nM; EC50 [3]: > 1000 nM |
| CC[C@@H]1C(=O)N(C)c2cnc(Nc3ccc(C(=O)NCc4cn(CCNCC(=O)Nc5cccc6c5CN(C5CCC(=O)NC5=O)C6=O)nn4)cc3OC)nc2N1C1CCCC1 (stereo partly shown) [UB-180691] | 10 to 100 | – | – | 100 to 1000 | – |
| CC[C@@H]1C(=O)N(C)c2cnc(Nc3ccc(C(=O)NC4CCN(CCOCCN(CC(=O)Nc5cccc6c5CN(C5CCC(=O)NC5=O)C6=O)C(=O)OC(C)C(C)SSC[C@@H](NC(=O)[C@@H](CC(=O)O)NC(=O)[C@@H](CC(=O)O)NC(=O)[C@@H](CCCNC(=N)N)NC(=O)[C@@H](CC(=O)O)NC(=O)CC[C@H](NC(=O)c5ccc(NCc6cnc7nc(N)[nH]c(=O)c7n6)cc5)C(=O)O)C(=O)O)CC4)cc3OC)nc2N1C1CCCC1 (stereo partly shown) [UB-180838] | – | – | – | – | EC50 [4]: 100 to 1000 nM; EC50 (Human Colon Cancer HT-29): 100 to 1000 nM; EC50 [5]: 100 to 1000 nM; EC50 [2]: 100 to 1000 nM |
| CC[C@@H]1C(=O)N(C)c2cnc(Nc3ccc(C(=O)NCCCNCCCCCCC(=O)Nc4cccc5c4CN(C4CCC(=O)NC4=O)C5=O)cc3OC)nc2N1Cc1ccc(Br)cc1 (stereo partly shown) [UB-180627] | 10 to 100 | > 1000 | > 1000 | – | DC50 (PLK1; [11]): 100 to 1000 nM; DC50 (BRD4; [12]): < 10 nM |
| CC[C@@H]1C(=O)N(C)c2cnc(Nc3ccc(C(=O)NCCOCCOCCOCC(=O)Nc4cccc5c4CN(C4CCC(=O)NC4=O)C5=O)cc3OC)nc2N1Cc1ccc(Br)cc1 (stereo partly shown) [UB-180566] | < 10 | 100 to 1000 | > 1000 | – | DC50 (PLK1; [13]): < 10 nM; DC50 (BRD4; [14]): < 10 nM |
| CC[C@@H]1C(=O)N(C)c2cnc(Nc3ccc(C(=O)NCc4cn(CCOCCNCCC(=O)Nc5cccc6c5CN(C5CCC(=O)NC5=O)C6=O)nn4)cc3OC)nc2N1C1CCCC1 (stereo partly shown) [UB-180707] | 10 to 100 | – | – | 100 to 1000 | – |
| CC[C@@H]1C(=O)N(C)c2cnc(Nc3ccc(C(=O)NCCOCCNCCCC(=O)Nc4cccc5c4CN(C4CCC(=O)NC4=O)C5=O)cc3OC)nc2N1Cc1ccc(Br)cc1 (stereo partly shown) [UB-180625] | 10 to 100 | > 1000 | > 1000 | – | DC50 (PLK1; [11]): < 10 nM; DC50 (BRD4; [12]): < 10 nM |
| CC[C@@H]1C(=O)N(C)c2cnc(Nc3ccc(C(=O)NCCCNCCCCC(=O)Nc4cccc5c4CN(C4CCC(=O)NC4=O)C5=O)cc3OC)nc2N1C1CCCC1 (stereo partly shown) [UB-180658] | 10 to 100 | 100 to 1000 | > 1000 | 100 to 1000 | EC50 ([4]; Homo sapiens): 100 to 1000 nM; EC50 [6]: 100 to 1000 nM; EC50 [7]: 100 to 1000 nM; EC50 ([5]; Homo sapiens): 100 to 1000 nM; EC50 [8]: 100 to 1000 nM; DC50 (PLK1; [13]): 10 to 100 nM; DC50 (BRD4; [14]): 10 to 100 nM |
| CC[C@@H]1C(=O)N(C)c2cnc(Nc3ccc(C(=O)NCCCNCCCCCC(=O)Nc4cccc5c4CN(C4CCC(=O)NC4=O)C5=O)cc3OC)nc2N1Cc1ccc(Br)cc1 (stereo partly shown) [UB-180639] | 10 to 100 | > 1000 | > 1000 | – | – |
| CC[C@@H]1C(=O)N(C)c2cnc(Nc3ccc(C(=O)NCCOCCOCCOCCNCCCCC(=O)Nc4cccc5c4CN(C4CCC(=O)NC4=O)C5=O)cc3OC)nc2N1Cc1ccc(Br)cc1 (stereo partly shown) [UB-180667] | – | – | 100 to 1000 | 100 to 1000 | EC50 [6]: 100 to 1000 nM; EC50 [9]: 100 to 1000 nM; EC50 ([5]; Homo sapiens): 100 to 1000 nM; EC50 ([1]; Homo sapiens, MV4;11 cells): 10 to 100 nM; EC50 [8]: 100 to 1000 nM; DC50 (PLK1; 24 h, western blot, read-out: PLK1 DC50 (24 h)): < 10 nM; DC50 (BRD4; 24 h, western blot, read-out: BRD4 DC50 (24 h)): < 10 nM |
| CC[C@@H]1C(=O)N(C)c2cnc(Nc3ccc(C(=O)NCCOCCNCCCCCC(=O)Nc4cccc5c4CN(C4CCC(=O)NC4=O)C5=O)cc3OC)nc2N1Cc1ccc(Br)cc1 (stereo partly shown) [UB-180643] | 10 to 100 | 100 to 1000 | > 1000 | – | – |
